Results as given in ChEMBL document CHEMBL1201862, “PubChem BioAssay data set” (2004).
Where “and” joins values, the source holds several entries; their conditions need not be identical. Equal values may be shown once. Calls of active or inactive are those of the source.

What was measured:
[1] = molecular target: Paired box protein Pax-8 (Homo sapiens, UniProt Q06710); experiment: PAX8 transcriptional activity inhibition in RMG-I – RMG-I cells, luciferase, cherry-pick, dose response (AID 687027); assay type: functional, cell-based;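 also: luciferase reporter driven by Pax8 target thyroperoxidase promoter measured by SteadyGlo luminescence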
Paired box protein Pax-8, sequence (Q06710 whole entry): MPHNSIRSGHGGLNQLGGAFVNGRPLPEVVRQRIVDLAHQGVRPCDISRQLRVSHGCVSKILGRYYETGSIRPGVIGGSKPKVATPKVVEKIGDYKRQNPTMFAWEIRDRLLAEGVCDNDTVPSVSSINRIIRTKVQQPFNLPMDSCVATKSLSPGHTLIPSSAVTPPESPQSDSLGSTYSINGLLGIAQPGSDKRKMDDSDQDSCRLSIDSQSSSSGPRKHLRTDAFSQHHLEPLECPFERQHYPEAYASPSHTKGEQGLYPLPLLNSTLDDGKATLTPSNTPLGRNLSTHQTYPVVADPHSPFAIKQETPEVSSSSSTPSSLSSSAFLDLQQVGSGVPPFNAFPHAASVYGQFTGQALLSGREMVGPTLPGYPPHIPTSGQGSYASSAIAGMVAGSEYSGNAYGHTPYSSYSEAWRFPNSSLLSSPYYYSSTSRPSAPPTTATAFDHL

[2] = toxicity toward immortalized ovarian surface epithelium – cell-based, plate reader, dry powder samples, cytotoxicity control for PAX8 inhibitor project, dose response (AID 743045); assay type: functional
[3] = A2780 cell killing – plate reader, dry powder samples, cytotoxicity control, dose response (AID 743046); assay type: functional, cell-based
[4] = OVCAR-3 cell viability loss – plate reader, dry powder samples, PAX8 inhibitor project, dose response (AID 743044); assay type: functional, cell-based
[5] = IGROV1 cell killing – plate reader, dry powder samples, PAX8 inhibitor project, dose response (AID 743043); assay type: functional, cell-based; details: IGROV-1
[6] = OVCAR8 cell viability loss – plate reader, dry powder samples, PAX8 project, dose response (AID 743197); assay type: functional, cell-based; details: OVCAR-8
[7] = P. falciparum Dd2 growth inhibitors, dose response, SYBR Green, cherry-picked samples (AID 1159567); assay type: functional, cell-based
[8] = toxicity to human hepatoma HepG2 cells – cell-based, cherry-picked samples, cytotoxicity control, dose response (AID 1159577); assay type: functional
[9] = IC50 of insulin release inhibition, rat insulinoma INS-1E line, 5 mM glucose, cell-based (AID 1117331); assay type: functional
[10] = cells; assay type: functional, cell-based; details: INS-1E
[11] = molecular target: T1, Caspase-3 (Homo sapiens, UniProt P42574); assay type: functional;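 also: Dose-response selectivity test against caspase-3 for candidate inhibitors of sentrin-specific proteases (SENPs)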
T1 sequence (P42574 whole entry): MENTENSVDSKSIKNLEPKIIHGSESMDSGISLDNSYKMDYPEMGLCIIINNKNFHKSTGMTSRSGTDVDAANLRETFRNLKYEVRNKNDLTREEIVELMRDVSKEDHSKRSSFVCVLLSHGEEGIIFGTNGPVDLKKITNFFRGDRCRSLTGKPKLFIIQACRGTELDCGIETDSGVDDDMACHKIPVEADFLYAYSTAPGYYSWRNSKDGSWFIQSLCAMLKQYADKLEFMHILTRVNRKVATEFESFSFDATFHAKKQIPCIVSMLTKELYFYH

[12] = molecular target: T2, Sentrin-specific protease 7 (Homo sapiens, UniProt Q9BQF6); assay type: functional;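 also: Luminescence-based dose-response confirmation of ultra-high-throughput screening hits, measuring inhibition of SENP7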
T2 sequence (Q9BQF6 whole entry): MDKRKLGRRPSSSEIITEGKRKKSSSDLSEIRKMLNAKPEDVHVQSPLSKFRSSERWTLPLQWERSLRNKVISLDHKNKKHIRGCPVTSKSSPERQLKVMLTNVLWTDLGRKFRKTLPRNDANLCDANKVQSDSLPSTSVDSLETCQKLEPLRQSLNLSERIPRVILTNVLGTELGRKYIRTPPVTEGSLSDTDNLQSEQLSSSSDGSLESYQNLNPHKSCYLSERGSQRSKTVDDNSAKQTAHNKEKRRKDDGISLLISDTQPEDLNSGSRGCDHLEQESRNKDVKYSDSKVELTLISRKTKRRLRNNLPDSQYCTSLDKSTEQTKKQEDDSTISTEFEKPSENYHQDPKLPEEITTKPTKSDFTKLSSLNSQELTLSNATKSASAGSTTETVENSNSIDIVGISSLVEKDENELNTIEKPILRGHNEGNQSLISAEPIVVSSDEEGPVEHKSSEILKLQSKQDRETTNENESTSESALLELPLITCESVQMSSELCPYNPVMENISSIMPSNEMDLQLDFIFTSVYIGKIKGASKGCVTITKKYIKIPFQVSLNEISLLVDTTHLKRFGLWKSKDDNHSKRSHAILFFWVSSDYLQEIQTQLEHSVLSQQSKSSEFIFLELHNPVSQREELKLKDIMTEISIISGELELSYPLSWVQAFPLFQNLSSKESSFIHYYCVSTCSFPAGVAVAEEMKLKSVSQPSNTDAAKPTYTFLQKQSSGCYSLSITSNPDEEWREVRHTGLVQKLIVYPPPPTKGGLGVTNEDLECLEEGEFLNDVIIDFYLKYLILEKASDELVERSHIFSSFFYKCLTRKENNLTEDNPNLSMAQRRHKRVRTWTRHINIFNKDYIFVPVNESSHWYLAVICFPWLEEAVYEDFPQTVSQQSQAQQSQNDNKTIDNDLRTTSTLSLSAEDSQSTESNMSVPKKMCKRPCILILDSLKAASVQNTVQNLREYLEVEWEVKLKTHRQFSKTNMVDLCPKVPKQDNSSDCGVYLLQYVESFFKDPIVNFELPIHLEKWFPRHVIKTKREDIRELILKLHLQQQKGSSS

[13] = molecular target: T3, Sentrin-specific protease 6 (Homo sapiens, UniProt Q9GZR1); assay type: functional;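 also: Luminescence-based dose-response confirmatory assay of SENP6 inhibition, following up an ultra-high-throughput screen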
T3 sequence (Q9GZR1 whole entry): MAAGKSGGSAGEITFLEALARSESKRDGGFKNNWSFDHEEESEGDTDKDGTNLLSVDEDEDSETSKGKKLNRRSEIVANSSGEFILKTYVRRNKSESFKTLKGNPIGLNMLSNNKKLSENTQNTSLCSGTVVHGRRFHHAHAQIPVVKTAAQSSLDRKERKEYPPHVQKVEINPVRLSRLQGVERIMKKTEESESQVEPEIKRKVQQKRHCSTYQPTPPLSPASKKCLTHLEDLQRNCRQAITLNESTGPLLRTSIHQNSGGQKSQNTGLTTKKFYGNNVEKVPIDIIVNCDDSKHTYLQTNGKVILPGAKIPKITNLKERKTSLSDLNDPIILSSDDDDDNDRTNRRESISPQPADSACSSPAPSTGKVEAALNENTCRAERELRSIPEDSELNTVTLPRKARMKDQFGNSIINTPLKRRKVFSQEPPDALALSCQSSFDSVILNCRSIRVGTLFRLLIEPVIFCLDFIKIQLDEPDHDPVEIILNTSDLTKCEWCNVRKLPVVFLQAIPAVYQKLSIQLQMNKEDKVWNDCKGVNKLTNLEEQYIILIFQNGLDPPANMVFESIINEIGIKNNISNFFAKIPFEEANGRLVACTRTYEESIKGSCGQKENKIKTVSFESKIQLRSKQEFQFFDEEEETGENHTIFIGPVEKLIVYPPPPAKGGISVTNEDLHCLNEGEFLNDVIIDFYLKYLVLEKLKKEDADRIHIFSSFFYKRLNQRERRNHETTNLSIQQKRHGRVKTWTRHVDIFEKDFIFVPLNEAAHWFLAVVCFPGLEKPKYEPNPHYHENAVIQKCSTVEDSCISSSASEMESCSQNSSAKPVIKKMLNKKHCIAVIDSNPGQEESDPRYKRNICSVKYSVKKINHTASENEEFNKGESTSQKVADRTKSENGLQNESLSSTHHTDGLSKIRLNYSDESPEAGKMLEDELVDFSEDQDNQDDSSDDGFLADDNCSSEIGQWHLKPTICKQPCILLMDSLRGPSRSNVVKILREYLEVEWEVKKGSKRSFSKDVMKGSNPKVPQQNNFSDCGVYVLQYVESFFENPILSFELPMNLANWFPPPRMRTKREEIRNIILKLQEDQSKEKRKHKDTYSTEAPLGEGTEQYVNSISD

[14] = molecular target: T4, Sentrin-specific protease 8 (Homo sapiens, UniProt Q96LD8); assay type: functional;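 also: luminescence read-out of SENP8 inhibition, dose-response confirmation following an ultra-high-throughput screen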
T4 sequence (Q96LD8 whole entry): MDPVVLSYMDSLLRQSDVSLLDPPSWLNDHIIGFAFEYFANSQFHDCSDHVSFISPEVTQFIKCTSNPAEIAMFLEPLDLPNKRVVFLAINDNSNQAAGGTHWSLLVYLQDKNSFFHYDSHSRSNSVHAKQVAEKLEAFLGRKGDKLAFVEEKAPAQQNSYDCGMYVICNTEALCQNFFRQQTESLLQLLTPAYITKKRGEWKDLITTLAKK

[15] = molecular target: T5, Mitochondrial peptide methionine sulfoxide reductase (Bos taurus, UniProt P54149); experiment: Absorbance-based biochemical high throughput dose response assay for activators of Methionine sulfoxide reductase A (MsrA).; assay type: functional
T5 sequence (P54149 whole entry): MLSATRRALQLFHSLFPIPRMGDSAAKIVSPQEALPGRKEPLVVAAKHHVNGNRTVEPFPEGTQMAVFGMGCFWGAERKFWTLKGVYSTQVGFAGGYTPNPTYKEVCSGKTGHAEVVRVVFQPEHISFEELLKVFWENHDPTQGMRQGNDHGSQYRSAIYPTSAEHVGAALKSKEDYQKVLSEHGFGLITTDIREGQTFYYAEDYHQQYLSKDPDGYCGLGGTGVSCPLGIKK

[16] = molecular target: T6, Caspase-6 (Homo sapiens, UniProt P55212); experiment: inhibition of CASP6 peptide cleavage – biochemical, VEID-R110 fluorescence, cherry-pick, dose response (AID 720632)
T6 sequence (P55212 whole entry): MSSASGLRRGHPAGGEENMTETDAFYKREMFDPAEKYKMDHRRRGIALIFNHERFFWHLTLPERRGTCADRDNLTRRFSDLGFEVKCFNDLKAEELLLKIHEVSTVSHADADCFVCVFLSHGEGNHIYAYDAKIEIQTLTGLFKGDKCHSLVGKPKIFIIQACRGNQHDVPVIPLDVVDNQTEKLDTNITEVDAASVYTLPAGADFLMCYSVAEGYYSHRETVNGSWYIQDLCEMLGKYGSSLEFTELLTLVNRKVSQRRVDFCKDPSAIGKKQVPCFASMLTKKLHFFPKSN

[17] = molecular target: Caspase-9 (Homo sapiens, UniProt P55211); experiment: inhibitors of purified CASP9 protease – biochemical, fluorescence, plate reader, cherry-picked samples, selectivity assay for caspase-6 inhibitor project, dose response (AID 743293)
Caspase-9, sequence (P55211 1-315 limits assumed): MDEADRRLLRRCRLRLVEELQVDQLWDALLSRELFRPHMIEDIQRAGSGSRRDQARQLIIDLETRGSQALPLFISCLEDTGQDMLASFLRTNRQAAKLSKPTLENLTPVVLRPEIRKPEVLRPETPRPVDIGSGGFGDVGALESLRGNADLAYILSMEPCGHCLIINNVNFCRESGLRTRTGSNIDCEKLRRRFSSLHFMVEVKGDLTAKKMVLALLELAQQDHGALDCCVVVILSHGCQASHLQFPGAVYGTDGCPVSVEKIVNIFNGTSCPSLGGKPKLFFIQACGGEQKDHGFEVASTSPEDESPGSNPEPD
Caspase-9, sequence (P55211 331-416 limits assumed): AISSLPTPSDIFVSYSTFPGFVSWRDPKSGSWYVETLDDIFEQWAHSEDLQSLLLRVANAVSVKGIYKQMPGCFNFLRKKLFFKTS

[18] = molecular target: Caspase-7 (Homo sapiens, UniProt P55210); experiment: caspase-7 enzyme inhibition, selectivity check – biochemical, DEVD-R110 fluorescence, cherry-pick, selectivity assay for caspase-6 inhibitor project, dose response (AID 743295); assay type: functional
Caspase-7, sequence (P55210 24-198 limits assumed): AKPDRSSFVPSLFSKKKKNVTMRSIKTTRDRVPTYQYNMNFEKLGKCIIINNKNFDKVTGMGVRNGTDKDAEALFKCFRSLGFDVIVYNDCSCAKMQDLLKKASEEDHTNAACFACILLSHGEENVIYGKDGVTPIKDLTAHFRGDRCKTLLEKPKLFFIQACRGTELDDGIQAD
Caspase-7, sequence (P55210 207-303 limits assumed): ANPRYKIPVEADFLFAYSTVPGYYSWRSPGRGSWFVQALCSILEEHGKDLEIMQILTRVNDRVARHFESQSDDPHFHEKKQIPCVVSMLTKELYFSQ

[19] = molecular target: Caspase-8 (Homo sapiens, UniProt Q14790); experiment: inhibitors of purified CASP8 protease – biochemical, Z-IETD-R110 fluorescence, cherry-picked samples, selectivity assay for caspase-6 inhibitor project, dose response (AID 743294)
Caspase-8, sequence (Q14790 217-374 limits assumed): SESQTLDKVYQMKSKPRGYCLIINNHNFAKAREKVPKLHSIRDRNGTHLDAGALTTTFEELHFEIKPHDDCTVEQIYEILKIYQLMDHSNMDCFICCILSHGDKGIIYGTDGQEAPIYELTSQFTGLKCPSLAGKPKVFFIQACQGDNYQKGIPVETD
Caspase-8, sequence (Q14790 385-479 limits assumed): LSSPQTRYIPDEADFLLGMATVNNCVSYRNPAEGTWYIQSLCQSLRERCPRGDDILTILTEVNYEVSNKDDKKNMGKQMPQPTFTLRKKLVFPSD

[20] = molecular target: T7, Polyadenylate-binding protein 1 (Homo sapiens, UniProt P11940); experiment: MLLE binding blockers, Cy5 peptide tracer – biochemical, fluorescence polarization, Cy5-PAM2 peptide, secondary, miRNA deadenylation inhibitor project, dose response (AID 602260); assay type: functional; details: read-out: IC50_Mean
T7 sequence (P11940 whole entry, the tested form may be a part): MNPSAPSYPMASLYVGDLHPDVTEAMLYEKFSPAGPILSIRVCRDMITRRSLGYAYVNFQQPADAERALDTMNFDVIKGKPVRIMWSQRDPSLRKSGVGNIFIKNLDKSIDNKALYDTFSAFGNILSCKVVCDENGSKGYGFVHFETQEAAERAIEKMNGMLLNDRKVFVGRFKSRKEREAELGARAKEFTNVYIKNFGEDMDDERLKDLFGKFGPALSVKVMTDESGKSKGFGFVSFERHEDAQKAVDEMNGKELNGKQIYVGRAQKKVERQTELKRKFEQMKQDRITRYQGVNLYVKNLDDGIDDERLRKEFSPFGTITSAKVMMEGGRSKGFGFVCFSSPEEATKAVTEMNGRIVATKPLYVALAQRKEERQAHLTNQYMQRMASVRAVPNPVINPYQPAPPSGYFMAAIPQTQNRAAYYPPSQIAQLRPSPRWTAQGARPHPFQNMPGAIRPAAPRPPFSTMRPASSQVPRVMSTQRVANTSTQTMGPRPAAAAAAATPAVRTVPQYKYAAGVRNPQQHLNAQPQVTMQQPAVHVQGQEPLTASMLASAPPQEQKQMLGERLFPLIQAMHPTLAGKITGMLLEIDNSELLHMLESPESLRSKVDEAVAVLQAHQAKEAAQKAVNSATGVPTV

[21] = molecular target: T7, Polyadenylate-binding protein 1; experiment: MLLE domain peptide-binding blockers, IC50 – biochemical, fluorescence polarization, FITC-PAM2 peptide, dose response (AID 602259); assay type: functional; details: read-out: IC50_Mean
[22] = molecular target: Metabotropic glutamate receptor 7 (Homo sapiens, UniProt Q14831); experiment: potentiation of glutamate EC20 at mGlu7 – cell-based, calcium mobilization, Galpha15, dose response (AID 743384); assay type: functional
Metabotropic glutamate receptor 7, sequence (Q14831 whole entry, the tested form may be a part): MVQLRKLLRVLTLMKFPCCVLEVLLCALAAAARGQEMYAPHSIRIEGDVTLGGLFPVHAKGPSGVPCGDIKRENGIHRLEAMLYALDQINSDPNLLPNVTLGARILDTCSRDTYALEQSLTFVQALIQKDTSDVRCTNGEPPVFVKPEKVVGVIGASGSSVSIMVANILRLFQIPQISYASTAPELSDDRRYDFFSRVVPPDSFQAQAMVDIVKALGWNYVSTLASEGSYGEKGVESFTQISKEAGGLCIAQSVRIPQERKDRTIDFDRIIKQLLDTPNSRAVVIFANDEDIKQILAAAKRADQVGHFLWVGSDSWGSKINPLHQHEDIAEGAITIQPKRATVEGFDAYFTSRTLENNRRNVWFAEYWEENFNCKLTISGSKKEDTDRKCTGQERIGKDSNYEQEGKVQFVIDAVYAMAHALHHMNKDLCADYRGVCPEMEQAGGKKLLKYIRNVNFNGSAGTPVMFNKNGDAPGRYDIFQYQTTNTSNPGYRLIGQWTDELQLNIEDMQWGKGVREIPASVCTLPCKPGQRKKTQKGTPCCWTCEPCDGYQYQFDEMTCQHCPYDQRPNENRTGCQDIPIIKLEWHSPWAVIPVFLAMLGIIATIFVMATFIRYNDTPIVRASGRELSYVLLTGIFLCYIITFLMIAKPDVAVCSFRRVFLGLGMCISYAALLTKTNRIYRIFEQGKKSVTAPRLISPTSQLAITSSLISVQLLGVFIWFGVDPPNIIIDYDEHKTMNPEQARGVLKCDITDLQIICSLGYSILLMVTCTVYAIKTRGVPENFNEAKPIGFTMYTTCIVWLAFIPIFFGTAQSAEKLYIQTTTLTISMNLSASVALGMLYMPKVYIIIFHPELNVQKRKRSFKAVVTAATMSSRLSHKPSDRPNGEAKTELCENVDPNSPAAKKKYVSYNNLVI

[23] = blockers of HIV-1 envelope-mediated cell-cell fusion – cherry-pick, dose response (AID 652057); assay type: functional, cell-based
[24] = blockers of HIV-1 ZM109 envelope-driven cell-cell fusion – HeLa effector, CEM target cells, luciferase, cherry-pick, dose response (AID 652058); assay type: functional, cell-based;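 also: luciferase signal from HIV-1 Env mediated cell-cell fusion of effector and target cells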
[25] = off-target signal loss in HeLa-CEM21 co-culture – HeLa F-luc CTL cells, cherry-picked, counter-screen for HIV-1 Env fusion inhibitor project, dose response (AID 652040); assay type: functional, cell-based;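 also: potency for signal decrease marking cytotoxic or nonspecific inhibition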
[26] = HIV-1 AD8 envelope cell-cell fusion blockers – cherry-pick, dose response (AID 652062); assay type: functional, cell-based;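 also: luciferase signal from cell-cell fusion driven by HIV-1 clade B AD8 Env; potency is for inhibitors of fusion seen as a drop in luminescence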
[27] = inhibition of Env-driven cell fusion – HIV entry, plate reader, dry powder, dose response (AID 687023); assay type: functional, cell-based
[28] = viability loss in CEM21 cells – cell-based, plate reader, dry powder, cytotoxicity control, dose response (AID 687026); assay type: functional
[29] = molecular target: NAD-dependent protein deacylase sirtuin-5, mitochondrial (Homo sapiens, UniProt Q9NXA8); experiment: sirtuin-5 deacylation blockers, concentration series – biochemical, fluorescence imaging, cherry-pick, set 5, dose response (AID 720591);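 also: desuccinylation of succinyl peptide AMC substrate read as fluorescence after trypsin release; potency of inhibitors that lower fluorescence and may act on trypsin instead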
NAD-dependent protein deacylase sirtuin-5, mitochondrial, sequence (Q9NXA8 whole entry): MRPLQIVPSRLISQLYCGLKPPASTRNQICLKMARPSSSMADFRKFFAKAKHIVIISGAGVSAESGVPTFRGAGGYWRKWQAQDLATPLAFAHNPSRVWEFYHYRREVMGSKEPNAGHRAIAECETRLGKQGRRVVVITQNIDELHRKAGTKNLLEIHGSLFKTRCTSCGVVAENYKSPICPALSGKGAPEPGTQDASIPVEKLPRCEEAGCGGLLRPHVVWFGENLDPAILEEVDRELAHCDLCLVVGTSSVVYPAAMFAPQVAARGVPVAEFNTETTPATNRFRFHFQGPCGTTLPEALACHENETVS

[30] = molecular target: Transthyretin (Homo sapiens, UniProt P02766); experiment: Luminescence-based cell-based high throughput dose response assay to identify activators of Transthyretin (TTR) transcription.; assay type: functional
[31] = glucagon-like peptide-1 release potency in STC-1, concentration-response, half-maximal inhibitory concentration in the STC-1 line (AID 1117345); assay type: functional, cell-based
[32] = Potency on glucagon-like peptide 1 release, dose-response in NCI-H716 cell line, half maximal inhibitory concentration (AID 1117344); assay type: functional, cell-based

## O=C(Nc1cccc(F)c1)N1CCCCN2[C@@H](CO)[C@H](c3ccc(C#Cc4ccccc4)cc3)[C@@H]2C1
[1]
  AC50: 9.89 µM (active)
[2]
  AC50: 63.4 µM (active)
[3]
  AC50: 19.8 µM (active)
[4]
  AC50: 17.2 µM (active)
[5]
  AC50: 29.4 µM (active)
[6]
  AC50: 65.6 µM (active)
[7]
  AC50: < 0.3 µM (active)
[8]
  AC50: 7.6 µM (active)

## Nc1c2c(nc3ccccc13)CCCC2 [TACRINE]
[9]
  IC50: 17.6 µM (inactive)
[10]
  IC50: > 33.3 µM (inactive)

## O=C(COC(=O)c1ccc([N+](=O)[O-])s1)Nc1ccccc1
[11]
  IC50: 8.76 µM (active)
[12]
  IC50: 6.5 µM (active)
[13]
  IC50: 4.39 µM (active)
[14]
  IC50: 4.04 µM (active)
[15]
  EC50: 57.5 µM (inactive)
[16]
  AC50: 2.49 µM (active)
[17]
  AC50: 25.5 µM (active)
[18]
  AC50: 17.4 µM (active)
[19]
  AC50: 25.5 µM (active)

## CC(=O)Nc1ccc(SCC(=O)c2cc(C)n(-c3ccccc3F)c2C)cc1
[20]
  IC50: > 66 µM (inactive)
[21]
  IC50: > 66 µM (inactive)
[22]
  EC50: 2.4 µM (active)

## Cc1ccc2c(CN3CCN(S(=O)(=O)c4ccc5c(c4)OCCO5)CC3)cc(=O)oc2c1C
[23]
  AC50: 4.58 µM (active)
[24]
  AC50: 0.424 µM (active)
[25]
  AC50: > 70 µM (inactive)
[26]
  AC50: 4.06 µM (active)
[27]
  AC50: 3.95 µM (active) and 5.68 µM (active) and 3.52 µM (active)
[28]
  AC50: > 70 µM (inactive)

## CCCCC(=O)Nc1ccc2c(c1)nc(CCNC(=O)c1ccco1)n2C
[29]
  AC50: > 30 µM (inactive)

## CCn1ncc(/C=N\NC(=O)c2csc3ccccc23)c1C
[30]
  EC50: > 167 µM (inactive)

## Nc1cc(C(F)(F)F)ccc1S
[31]
  IC50: 1.16 µM (active)
[32]
  IC50: 15.3 µM (inactive)
